Consider six molecules from ChEMBL document CHEMBL3046796, “Evaluation of a new lead for acetylcholinesterase inhibition” (Med Chem Res, 2009).

Structures are written as SMILES.

Assay [1] concerns the target Acetylcholinesterase (Electrophorus electricus) (UniProt O42275). Briefly: Inhibition of Electrophorus electricus (electric eel) acetylcholinesterase (AChE) using […] as substrate at 10 '-5 M by Ellman method. Background: In Ellman's method for cholinesterases, released thiocholine reacts with DTNB.
For the next assay, the target named is Acetylcholinesterase (Electrophorus electricus, UniProt O42275). The assay is described as follows: Inhibition of Electrophorus electricus (electric eel) acetylcholinesterase (AChE) using […] as substrate by Ellman method.
Assay [2] deals with Cholinesterase (Equus caballus) (UniProt P81908). The assay is described as follows: Inhibition of Equus caballus (horse) serum butyrylcholinesterase (BChE) at 10 '-5 M by Ellman method.
The target is the same in assay [3]. The assay is described as follows: Inhibition of Equus caballus (horse) serum butyrylcholinesterase (BChE) at 10 '-4 M by Ellman method.

In general, inhibition refers to the share of the control response that was lost under treatment. Read a high inhibition as a response far below the control. As a reminder, the IC50 is the point on the concentration scale where inhibition reaches its midpoint. Read a high IC50 as a need for much substance.

Acetylcholinesterase, sequence (O42275 whole entry): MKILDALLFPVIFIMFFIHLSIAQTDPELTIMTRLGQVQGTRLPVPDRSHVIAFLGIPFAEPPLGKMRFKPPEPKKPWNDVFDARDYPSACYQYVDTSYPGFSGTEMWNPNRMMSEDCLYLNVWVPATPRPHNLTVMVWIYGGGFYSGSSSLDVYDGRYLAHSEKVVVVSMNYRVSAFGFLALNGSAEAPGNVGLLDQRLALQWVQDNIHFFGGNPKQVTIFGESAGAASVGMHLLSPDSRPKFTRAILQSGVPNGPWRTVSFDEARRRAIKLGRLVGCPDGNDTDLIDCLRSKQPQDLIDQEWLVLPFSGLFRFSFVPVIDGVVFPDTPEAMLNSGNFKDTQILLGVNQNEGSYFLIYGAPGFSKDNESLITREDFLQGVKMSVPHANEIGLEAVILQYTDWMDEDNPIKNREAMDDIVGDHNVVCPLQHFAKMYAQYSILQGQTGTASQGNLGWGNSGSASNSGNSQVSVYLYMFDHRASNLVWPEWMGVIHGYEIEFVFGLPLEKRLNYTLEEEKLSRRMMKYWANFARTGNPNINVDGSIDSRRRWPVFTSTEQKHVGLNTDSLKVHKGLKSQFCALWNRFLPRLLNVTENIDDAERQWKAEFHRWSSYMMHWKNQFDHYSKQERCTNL
Acetylcholinesterase (Electrophorus electricus), sequence (O42275 24-633 limits assumed): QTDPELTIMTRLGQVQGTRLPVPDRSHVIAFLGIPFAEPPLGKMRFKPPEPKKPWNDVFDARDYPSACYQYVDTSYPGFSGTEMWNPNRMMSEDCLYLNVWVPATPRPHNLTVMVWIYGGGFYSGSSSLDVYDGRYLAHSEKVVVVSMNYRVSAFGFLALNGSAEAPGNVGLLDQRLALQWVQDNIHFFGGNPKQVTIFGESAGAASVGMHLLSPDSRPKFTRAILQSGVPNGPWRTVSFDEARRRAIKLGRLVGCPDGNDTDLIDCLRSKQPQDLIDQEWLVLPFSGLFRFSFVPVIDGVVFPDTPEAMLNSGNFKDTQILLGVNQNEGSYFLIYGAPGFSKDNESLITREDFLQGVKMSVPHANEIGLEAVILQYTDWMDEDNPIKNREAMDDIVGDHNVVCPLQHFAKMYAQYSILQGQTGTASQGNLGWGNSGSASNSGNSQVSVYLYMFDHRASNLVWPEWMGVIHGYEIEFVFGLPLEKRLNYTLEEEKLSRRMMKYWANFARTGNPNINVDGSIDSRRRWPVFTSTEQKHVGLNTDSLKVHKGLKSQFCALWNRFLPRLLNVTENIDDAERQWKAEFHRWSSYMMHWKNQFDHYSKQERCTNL
Cholinesterase (Equus caballus), sequence (P81908 whole entry): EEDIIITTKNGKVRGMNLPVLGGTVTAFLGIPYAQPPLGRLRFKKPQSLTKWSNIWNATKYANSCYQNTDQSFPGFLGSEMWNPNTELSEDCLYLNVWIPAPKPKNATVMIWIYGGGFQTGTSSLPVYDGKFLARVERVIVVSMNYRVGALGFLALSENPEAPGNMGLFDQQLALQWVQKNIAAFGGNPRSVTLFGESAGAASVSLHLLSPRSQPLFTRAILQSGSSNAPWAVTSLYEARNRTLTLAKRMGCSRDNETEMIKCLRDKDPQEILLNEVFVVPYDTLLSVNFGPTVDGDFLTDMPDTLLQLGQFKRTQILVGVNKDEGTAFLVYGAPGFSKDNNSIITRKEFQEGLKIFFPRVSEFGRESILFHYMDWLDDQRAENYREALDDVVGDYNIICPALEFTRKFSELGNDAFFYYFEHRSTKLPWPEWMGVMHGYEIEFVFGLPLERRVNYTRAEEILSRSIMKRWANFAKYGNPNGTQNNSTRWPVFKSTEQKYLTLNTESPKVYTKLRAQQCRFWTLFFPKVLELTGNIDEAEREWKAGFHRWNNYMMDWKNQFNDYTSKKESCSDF

With `COc1ccc(C(=O)c2nccc3cc(OC)c(OC)cc23)cc1OC`, the inhibition in assay [1] stood at 2.3%.

On Acetylcholinesterase, `COc1ccc(Cc2nccc3cc(OC)c(OC)cc23)cc1OC` [PAPAVERINE] displayed a half-inhibitory concentration (IC50) of 24.3 µM.

`COc1ccc(C(O)c2nccc3cc(OC)c(OC)cc23)cc1OC` (stereo not drawn): the midpoint of inhibition against Acetylcholinesterase, the IC50, lay at 10.7 µM.

Turning to `COc1ccc(CC2=NCCc3cc(OC)c(OC)cc32)cc1OC`, the inhibition in assay [2] turned out to be 0%; in assay [3] it was 18%; in assay [1] it was 53%. For the same molecule, the half-inhibitory concentration (IC50) on Acetylcholinesterase was found to be 7 µM.

On to `COc1ccc(CCNC(=O)Cc2ccc(OC)c(OC)c2)cc1OC`, for which the figures for the inhibition in assay [2], in assay [3] and in assay [1] were 0%, 1.7% and 5.9%, respectively.

In the case of `COc1ccc(CC2NCCc3cc(OC)c(OC)cc32)cc1OC` (stereo not drawn), the results for the inhibition in assay [2], in assay [3] and in assay [1] were 5.2%, 17.4% and 9%, respectively.
